Data from patent US9796719B2, “Compounds and pharmaceutical compositions thereof for the treatment of inflammatory disorders” (GALAPAGOS NV, priority 2013, dated 2017).
Where a name gives a salt, the structure may show the parent alone.

Target: hENPP2 (UniProtKB/SwissProt Sequence ref Q13822) (Homo sapiens (Human), UniProt Q13822)
Assay: LPC hENPP2 assay (choline release, LPC as substrate)
Type: biochemical
Protocol: The principle of the assay consists in quantifying the released choline with an enzymatic method using choline oxidase and peroxidase. Choline oxydation by choline oxydase releases betaine and peroxide. The latter is quantified in presence of HRP that converts the peroxide detection agent TOOS and 4-aminoantipyrine into quinoneimine dye. The appearance of quinoneimine dye is measured spectrophotometrically at 555 nm and is proportional to the amount of choline released by ENPP2. Inhibition of ENPP2 will result in a decrease of the signal.
The reaction is terminated and choline quantified by the addition of a 25 μL of a mixture containing 0.6 U/mL of choline oxidase, 0.6 U/mL of peroxydase, 1.8 mM TOOS, 1.2 mM amino-antipyrine, 20 mM EGTA (stop-developer solution) diluted in the buffer described above. […] is read on the Envision after an incubation of 30 min at room temperature (Excitation 555 nm, excitation light=70%).

CCc1nc2ccc(N3CCC(=O)C3)nn2c1N(C)c1nc(-c2ccc(F)cc2)c(Cl)s1 [Compound 132, 1-(3-((5-chloro-4-(4-fluorophenyl)thiazol-2-yl)(methyl)amino)-2-ethylimidazo[1,2-b]pyridazin-6-yl)pyrrolidin-3-one] and CCc1nc2ccc(N3CCC(O)C3)nn2c1N(C)c1nc(-c2ccc(F)cc2)c(CO)s1 (stereo not shown) [Cpd 185, 1-(2-ethyl-3-((4-(4-fluorophenyl)-5-(hydroxymethyl)thiazol-2-yl)(methyl)amino)imidazo[1,2-b]pyridazin-6-yl)pyrrolidin-3-ol] cannot be ordered by IC50: over 1000 nM for the first, over 1000 nM for the second.

CCc1nc2ccc(N3CC(C(=O)N4CCC(O)C4)C3)nn2c1N(C)c1nc(-c2ccc(F)cc2)cs1 (stereo not shown) [Cpd 159, (1-(2-ethyl-3-((4-(4-fluorophenyl)thiazol-2-yl)(methyl)amino)imidazo[1,2-b]pyridazin-6-yl)azetidin-3-yl)(3-hydroxypyrrolidin-1-yl)methanone] and CCc1nc2ccc(N3CCC(C(=O)N4CCOCC4)C3)nn2c1N(C)c1nc(-c2ccc(F)cc2)cs1 (stereo not shown) [Cpd 141, (1-(2-ethyl-3-((4-(4-fluorophenyl)thiazol-2-yl)(methyl)amino)imidazo[1,2-b]pyridazin-6-yl)pyrrolidin-3-yl)(morpholino) methanone] cannot be ordered by IC50: over 1000 nM for the first, over 1000 nM for the second.

CCc1nc2ccc(C3CCN(CC(=O)NC)CC3)nn2c1N(C)c1nc(-c2ccc(F)cc2C#N)c(C)s1 [Cpd 211, 2-(4-(3-((4-(2-cyano-4-fluorophenyl)-5-methylthiazol-2-yl)(methyl)amino)-2-ethylimidazo[1,2-b]pyridazin-6-yl)piperidin-l-yl)-N-methylacetamide] and CCc1nc2ccc(C3CCN(CC(=O)N4CC(O)C4)CC3)nn2c1N(C)c1nc(-c2ccc(F)cc2C#N)c(C)s1 [Cpd 210, 2-(2-((2-ethyl-6-(1-(2-(3-hydroxyazetidin-1-yl)-2-oxoethyl)piperidin-4-yl)imidazo[1,2-b]pyridazin-3-yl)(methyl)amino)-5-methylthiazol-4-yl)-5-fluorobenzonitrile] cannot be ordered by IC50: over 1000 nM for the first, over 1000 nM for the second.

CCc1nc2ccc(N3CCC(C(=O)NCCO)C3)nn2c1N(C)c1nc(-c2ccc(F)cc2)cs1 (stereo not shown) [Cpd 140, 1-(2-ethyl-3-((4-(4-fluorophenyl)thiazol-2-yl)(methyl)amino)imidazo[1,2-b]pyridazin-6-yl)-N-(2-hydroxyethyl) pyrrolidine-3-carboxamide] and CCc1nc2ccc(N3CCC(OC=O)C3)nn2c1N(C)c1nc(-c2ccc(F)cc2)cs1 (stereo not shown) [Compound 130, 1-(2-ethyl-3-((4-(4-fluorophenyl)thiazol-2-yl)(methyl)amino)imidazo[1,2-b]pyridazin-6-yl)pyrrolidin-3-yl formate] cannot be ordered by IC50: over 1000 nM for the first, over 1000 nM for the second.

First: CCc1nc2ccc(N3CCC(N4CCC(O)CC4)C3)nn2c1N(C)c1nc(-c2ccc(F)cc2)c(C#N)s1 (stereo not shown) [Cpd 182, 2-((2-ethyl-6-(3-(4-hydroxypiperidin-1-yl)pyrrolidin-1-yl)imidazo[1,2-b]pyridazin-3-yl)(methyl)amino)-4-(4-fluorophenyl) thiazole-5-carbonitrile]
Second: CCc1nc2ccc(N3CCC(CO)C3)nn2c1N(C)c1nc(-c2ccc(F)cc2)c(C#N)s1 (stereo not shown) [Cpd 173, 2-((2-ethyl-6-(3-(hydroxymethyl)pyrrolidin-1-yl)imidazo[1,2-b]pyridazin-3-yl)(methyl)amino)-4-(4-fluorophenyl) thiazole-5-carbonitrile]
The IC50 of the first is lower: 0.01 to 100 nM for the first, 100 to 500 nM for the second. The first is the more potent here.

CCc1nc2ccc(N3CCCC(N4CCOCC4)C3)nn2c1N(C)c1nc(-c2ccc(F)cc2)cs1 (stereo not shown) [Cpd 110, N-(2-ethyl-6-(3-morpholino-piperidin-1-yl)imidazo[1,2-b]pyridazin-3-yl)-4-(4-fluorophenyl)-N-methylthiazol-2-amine] and CCc1nc2ccc(N3CCC4(CCOCC4)C3)nn2c1N(C)c1nc(-c2ccc(F)cc2)cs1 [Cpd 117, N-(2-ethyl-6-(8-oxa-2-azaspiro[4.5]decan-2-yl)imidazo[1,2-b]pyridazin-3-yl)-4-(4-fluorophenyl)-N-methylthiazol-2-amine] cannot be ordered by IC50: over 1000 nM for the first, over 1000 nM for the second.

CCc1nc2ccc(N3C[C@H]4C[C@H]3CN4C(=O)OC(C)(C)C)nn2c1N(C)c1nc(-c2ccc(F)cc2)cs1 [Cpd 74, tert-butyl-(1R,4S)-5-(2-ethyl-3-((4-(4-fluorophenyl)thiazol-2-yl)(methyl)amino)imidazo[1,2-b]pyridazin-6-yl)-2,5-diazabicyclo[2.2.1] heptane-2-carboxylate] and CCc1nc2ccc(N3CCN(CCNC(=O)OC(C)(C)C)CC3)nn2c1N(C)c1nc(-c2ccc(F)cc2)cs1 [Cpd 56, tert-butyl 2-(4-(2-ethyl-3-((4-(4-fluorophenyl)thiazol-2-yl)(methyl)amino)imidazo[1,2-b]pyridazin-6-yl)piperazin-1-yl)ethylcarbamate] cannot be ordered by IC50: over 1000 nM for the first, over 1000 nM for the second.

CCc1nc2ccc(N3CCN(S(C)(=O)=O)[C@@H](CO)C3)nn2c1N(C)c1nc(-c2ccc(F)cc2)cs1 [Cpd 69, (R)-(4-(2-ethyl-3-((4-(4-fluorophenyl)thiazol-2-yl)(methyl)amino)imidazo[1,2-b]pyridazin-6-yl)-1-(methylsulfonyl)piperazin-2-yl)methanol] and CCOC(=O)NCCN1CCN(c2ccc3nc(CC)c(N(C)c4nc(-c5ccc(F)cc5)cs4)n3n2)CC1 [Cpd 58, ethyl 2-(4-(2-ethyl-3-((4-(4-fluorophenyl)thiazol-2-yl)(methyl)amino)imidazo[1,2-b]pyridazin-6-yl)piperazin-1-yl)ethylcarbamate] cannot be ordered by IC50: over 1000 nM for the first, over 1000 nM for the second.

First: CCc1nc2ccc(N3C[C@H](O)[C@@H](N4CCOCC4)C3)nn2c1N(C)c1nc(-c2ccc(F)cc2)c(C#N)s1 [Cpd 184]
Second: CCc1nc2ccc(N3CCC4(CCNC4)C3)nn2c1N(C)c1nc(-c2ccc(F)cc2)c(C#N)s1 (stereo not shown) [Cpd 166, 2-((2-ethyl-6-(2,7-diazaspiro[4.4]nonan-2-yl)imidazo[1,2-b]pyridazin-3-yl)(methyl)amino)-4-(4-fluorophenyl) thiazole-5-carbonitrile]
The IC50 of the first is lower: 0.01 to 100 nM for the first, 100 to 500 nM for the second.

First: CCc1nc2cnc(N3CCN(CC(=O)N4CC(O)C4)CC3)cn2c1N(C)c1cccc(-c2ccc(F)cc2C#N)n1 [Cpd 17, 2-(6-((2-ethyl-6-(4-(2-(3-hydroxyazetidin-1-yl)-2-oxoethyl)piperazin-1-yl)imidazo[1,2-a]pyrazin-3-yl)(methyl)amino)pyridin-2-yl)-5-fluorobenzonitrile]
Second: CCc1nc2ccc(N3CCC4(CN(C)C(=O)O4)C3)nn2c1N(C)c1nc(-c2ccc(F)cc2)c(C#N)s1 (stereo not shown) [Cpd 164, 2-((2-ethyl-6-(3-methyl-2-oxo-1-oxa-3,7-diazaspiro[4.4]nonan-7-yl)imidazo[1,2-b]pyridazin-3-yl)(methyl)amino)-4-(4-fluorophenyl) thiazole-5-carbonitrile]
The IC50 of the first is higher: over 1000 nM for the first, 100 to 500 nM for the second.

CCc1nc2ccc(N3CCC(c4ccccc4)CC3)nn2c1N(C)c1nc(-c2ccc(F)cc2)cs1 [Cpd 113, N-(2-ethyl-6-(4-phenylpiperidin-1-yl)imidazo[1,2-b]pyridazin-3-yl)-4-(4-fluorophenyl)-N-methylthiazol-2-amine] and CCNC(=O)COC1CCCN(c2ccc3nc(CC)c(N(C)c4nc(-c5ccc(F)cc5)cs4)n3n2)C1 (stereo not shown) [Cpd 92, N-ethyl-2-(1-(2-ethyl-3-((4-(4-fluorophenyl)thiazol-2-yl)(methyl)amino)imidazo[1,2-b]pyridazin-6-yl)piperidin-3-yloxy)acetamide] cannot be ordered by IC50: over 1000 nM for the first, over 1000 nM for the second.
